# Source: patent publication US12245999B2, “Valproic acid for the treatment or prevention of pathological conditions associated with excess fibrin deposition and/or thrombus formation” (Cereno Scientific AB, priority 2014, dated 2025)
# Read-outs that look alike come from different tables or passages of the source.
# Tests used:
# PAI-1 [1] = assay: Proof-of-concept cross-over study in healthy subjects: plasma PAI-1 before and after valproic acid; type: in vivo, human; details: 500 mg (Ergenyl Retard) twice daily during 14 days, p<0.05
# Experimental: (§1) The effects of VPA on PAI-1 were analysed in two different proof-of-concept studies in healthy subjects as well as in patients with manifest atherosclerotic disease. […] PAI-1 plasma levels were measured in the morning at the first day of the study as well as at the end of the treatment period with VPA (see example 2 for details on the PAI-1 analysis).
# In the first study, 10 healthy non-smoking white male subjects (with mean BMI of approximately 26), aged 50-70 years were included and treated with valproic acid 500 mg (Ergenyl Retard, Sanofi) twice daily during 14 days.
# (§2) The study comprises 20 patients with TIA/minor stroke. Patients are investigated before and after oral treatment with 400 mg valproic acid once time daily at 11 pm for 2 weeks. Plasma PAI-1 levels and plasma concentrations of valproic acid is followed daily during the study period at the following time-points: 3 am, 6 am, 10 am, 16 pm, 22 pm PAI-1 levels are measured by commercially available ELISA-kits (Coaliza PAI-1, Chromogenix AB) and the plasma concentration of valproic acid an metabolites thereof is analyzed according to clinical routine at the Sahlgrenska University laboratory, Gothenburg, Sweden.
# PAI-1 [2] = assay: Proof-of-concept cross-over study in patients with a history of myocardial infarction: plasma PAI-1 before and after valproic acid; type: in vivo, human; details: midmorning, p=0.01; for reduction in circulating plasma PAI-1 levels: 16 male patients with history of myocardial infarction, 500 mg (Ergenyl Retard) twice daily during 28 days on top of ordinary prescription
# Experimental: as §1
# In the second study, 16 non-smoking white male patients, aged 50-80 years with a history of a myocardial infarction were included. On top of their ordinary prescription (beta-blocker, ACE-inhibitor, statin, aspirin) they were treated with valproic acid 500 mg (Ergenyl Retard, Sanofi), twice daily during 28 days.
# as §2
# PAI-1 [3] = assay: In vitro cultured endothelial cells: PAI-1 mRNA / production after VPA treatment; type: cell-based
# PAI-1 [4] = assay: In vivo model in mouse: plasma PAI-1; details: in vivo model in mouse (unpublished data)
# PAI-1 [5] = assay: Intermediate endpoint study in patients with TIA/minor stroke: plasma PAI-1 (ELISA); type: in vivo, human; details: 20 patients with TIA/minor stroke, 400 mg enteric-coated tablet once daily at 11 pm for 2 weeks
# Experimental: An intermediate endpoint proof-of-concept study is performed in patients with TIA/minor stroke investigated before and after treatment with Valproic acid. Valproic acid is administrated as an enteric-coated tablet with delayed absorption.
# as §2
# [6] = Clinical outcome study in high-risk patients: recurrent atherothrombotic events; type: in vivo, human; details: 400 mg once daily at 11 pm, long-term, expected
# Experimental: A clinical outcome study is performed in high-risk patients who have experienced a recent major atherothrombotic cardiovascular event (myocardial infarction or TIA/ischemic stroke) to investigate the preventive effect of valproic acid treatment on the risk for recurrent events. The annual risk for a recurrent atherothrombotic event in the investigated population is estimated to approximately 7%. Patients are randomized in a parallel study design to receive double-blind oral treatment with 400 mg valproic acid (as in Example 2) or placebo once time daily at 11 pm, in addition to optimal conventional treatment. The event rate is monitored by Kaplan-Meyer statistics. The primary efficacy endpoint is the composite measure of either mortality, or non-fatal myocardial infarction or ischemic stroke. The study is event-driven to a total of 180 events.
# PAI-1 [7] = details: in vivo model in pig (Svennerholm et al., PLoS One 2014); cited from earlier work
structure (smiles),measurement,setting,value
"CCCC(CCC)C(=O)O [valproic acid, 2-propylpentanoic acid]",reduction in circulating plasma PAI-1 levels,"PAI-1 [1]; 10 healthy male subjects, mid-morning vs before treatment",more than 50%
same,circulating plasma PAI-1 level after treatment,"PAI-1 [1]; healthy male subjects, mid-morning, 22.2 ng/ml before treatment",10.8 ng/mL
same,reduction in circulating plasma PAI-1 levels,PAI-1 [2],45%
same,reduction in circulating plasma PAI-1 levels,PAI-1 [2]; listed as VPA,about 45%
same,circulating plasma PAI-1 level after treatment,"PAI-1 [2]; patients with history of myocardial infarction, 500 mg (Ergenyl Retard) twice daily during 28 days, 19.6 ng/ml before treatment",11 ng/mL
same,PAI-1 mRNA levels after VPA treatment,PAI-1 [3],did not show a decrease
same,increase in PAI-1 production,PAI-1 [3]; slight but significant,30%
same,effects on plasma PAI-1,PAI-1 [4],did not detect any effects
same,plasma PAI-1 levels lowered after the treatment,PAI-1 [5],approximately 30%
same,reduction of risk for recurrent atherothrombotic event,[6]; in addition to conventional therapy,approximately 30%
same,annual absolute event rate,[6]; estimated approximately 7% without treatment,approximately 5%
same,effects on plasma PAI-1,PAI-1 [7],did not detect any effects
